Series [1] has as its system P. falciparum Dd2 (chloroquine, pyrimethamine and mefloquine drug-resistant strain). In words: In vitro anti-plasmodial image-based assay, P. falciparum Dd2. Type of series: cell-based, Plasmodium falciparum. The note with it: for IC50 / inhibition at 80 µM: Plasmodium falciparum, DD2; for IC50: 72 h incubation, read-out: Pf Dd2 IC50 ± SD; for SI for Dd2: SI = HEK293 IC50/parasite IC50; for inhibition at 80 µM: top dose of 80 µM, read-out: Pf Dd2 inhibition at the top dose (no IC50 given). The protocol:
(§1) S4: In vitro anti-plasmodial image-based assay
(§2) Plasmodium falciparum 3D7 and Dd2 parasites were cultured in RPMI1640 (Life Technologies, Camarillo, CA, USA) supplemented with 2.5 mg/mL Albumax II, 5% AB human serum, 25 mM HEPES, and 0.37mM hypoxanthine. Ring stage parasites were treated with compounds following two rounds of sorbitol synchronization, as previously described.
(§3) Following incubation of assay plates for 72 h at 37 °C, and 5% CO2 and 5% O2, parasites were stained with 2-(4-amidinophenyl)-1H-indole-6-carboxamidine (DAPI) and imaged using an Opera PhenixTM High Content Screening System (PerkinElmer, Waltham, MA, USA). Images were analysed using Harmony software (PerkinElmer, Waltham, MA, USA).
(§4) S5: In vitro cytotoxicity assay
(§5) Human embryonic kidney (HEK293) cells were maintained in DMEM (Life Technologies, Camarillo, CA, USA) containing 10% FBS (Hyclone™ ThermoFisher, Melbourne, Australia).
(§6) Cytotoxicity testing was undertaken, as previously described. In brief, 5 μL of test compound was added to the well of black/clear tissue culture-treated, 384-well plates containing 3000 adherent HEK 293 cells/well in 45 μL and incubated 72 h at 37 °C in 5% CO2.
(§7) After incubation, the supernatant was removed and replaced with 40 μL of 10% Alamar Blue per well. Plates were incubated for 5−6 h and measured for fluorescence at 530 -nm excitation and 595-nm emission. The % inhibition was calculated using 0.4% DMSO (no inhibition) and […]
(§8) IC 50 values were obtained by plotting % inhibition against log dose using GraphPad Prism v.6 (San Diego, CA, USA) nonlinear regression with a […]

In series [2] the test system is P. falciparum 3D7 (chloroquine-sensitive strain). In words: In vitro anti-plasmodial image-based assay, P. falciparum 3D7. The settings on record: for IC50 / inhibition at 80 µM: Plasmodium falciparum, 3D7; for IC50: 72 h incubation, read-out: Pf 3D7 IC50 ± SD; for SI for 3D7: SI = HEK293 IC50/parasite IC50; for inhibition at 80 µM: top dose of 80 µM, read-out: Pf 3D7 inhibition at the top dose (no IC50 given). It counts as cell-based, Plasmodium falciparum. The protocol: as §1, §2, §3, §4, §5, §6, §7, §8

Series [3] relates to Plasmodium falciparum (Pf). The settings on record: previous study; read-out: IC50 (antimalarial activity); cited from earlier work.
[4] abbreviates: values marked d are estimated IC50 as a plateau of inhibition was not reached.

Read-outs that look alike come from different tables or passages of the source.

On to `N#Cc1ccc(-c2nnc3cncc(Cl)n23)cc1` [Compound 3], for which the IC50 (commonly the concentration that gives 50% inhibition) was 26.2 ± 1.01 µM in series [1] (setting [4]) and 35.5 ± 3.33 µM in series [2] (setting [4]). In series [1], the “SI for Dd2” value is >3. For the same molecule, the “SI for 3D7” value in series [2] is recorded as >2.

Consider `Clc1ccc(-c2nnc3cncc(Cl)n23)cc1` [Compound 2], for which the IC50 was 17.1 ± 0.43 µM in series [1] (setting [4]), 12.6 µM in series [3] and 18.9 ± 0.63 µM in series [2] (setting [4]). Moreover, the “SI for Dd2” value in series [1] is >4. The “SI for 3D7” value in series [2] is given as >4.

In the case of `FC(F)Oc1ccc(-c2nnc3c(C(F)F)ncc(OCCc4ccccc4)n23)cc1` [Compound 12, 3-(4-(Difluoromethoxy)phenyl)-8-(difluoromethyl)-5-phenethoxy-[1,2,4]triazolo[4,3-a]pyrazine], the IC50 is 19.6 ± 0.42 µM in series [1] (setting [4]) and 16.4 ± 1.13 µM in series [2] (setting [4]). In series [1], the “SI for Dd2” value was >4. Also, in series [2], the “SI for 3D7” value is reported as >5.

Consider `FC(F)Oc1ccc(-c2nnc3cncc(OCCc4ccccc4)n23)cc1` [Compound 4], for which the IC50 in series [1] (setting [4]) is 0.26 ± 0.01 µM; in series [2] (setting [4]) it was 0.24 ± 0.01 µM. Also, the “SI for Dd2” value in series [1] is >312. For the same molecule, in series [2], the “SI for 3D7” value is reported as >329.

Turning to `COc1ccc(C[C@H](N)C(=O)N[C@H]2[C@@H](O)[C@H](n3cnc4c(N(C)C)ncnc43)O[C@@H]2CO)cc1` [Puromycin, reference compound], the IC50 in series [1] (controls) was determined as 0.102 ± 0.0095 µM; in series [2] (controls) it was 0.079 ± 0.0057 µM. In series [1], the “SI for Dd2” value is 98. In series [2], the “SI for 3D7” value is recorded as 127.

Turning to `CCOc1cncc2nnc(-c3ccc(OC(F)F)cc3)n12` [Compound 7, 3-(4-(difluoromethoxy)phenyl)-5-ethoxy-[1,2,4]triazolo[4,3-a]pyrazine], the inhibition at 80 µM in series [1] and in series [2] was < 81% each time.

For the molecule `CC(F)(F)c1ncc(OCCc2ccccc2)n2c(-c3ccc(C#N)cc3)nnc12` [Compound 17, 4-(8-(1,1-Difluoroethyl)-5-phenethoxy-[1,2,4]triazolo[4,3-a]pyrazin-3-yl)benzonitrile], the inhibition at 80 µM in series [1] and in series [2] was < 33% in each case.

On to `N#Cc1ccc(-c2nnc3c(C(F)F)ncc(OCCc4ccccc4)n23)cc1` [Compound 18, 4-(8-(Difluoromethyl)-5-phenethoxy-[1,2,4]triazolo[4,3-a]pyrazin-3-yl)benzonitrile], for which the melting point (usually the temperature of the solid-liquid transition) lay within 109 to 111 °C. In addition, the IC50 in series [1] (setting [4]) is 58.6 ± 1.68 µM. For the same molecule, in series [1], the “SI for Dd2” value is listed as >1. The half-maximal inhibitory concentration (IC50) in series [2] (setting [4]) was 31 ± 2.37 µM. Further, the “SI for 3D7” value in series [2] is listed as >3.

Consider `FC(F)Oc1ccc(-c2nnc3cncc(Cl)n23)cc1` [Compound 1], for which the IC50 in series [1] (setting [4]) is 34.5 ± 4.46 µM; in series [2] (setting [4]), 45.2 ± 5.42 µM. For the same molecule, the “SI for Dd2” value in series [1] is given as >2. Further, the “SI for 3D7” value in series [2] is on record as >2.

As for `FC(F)c1ncc(OCCc2ccccc2)n2c(-c3ccc(Cl)cc3)nnc12` [Compound 15, 3-(4-Chlorophenyl)-8-(difluoromethyl)-5-phenethoxy-[1,2,4]triazolo[4,3-a]pyrazine], the concentration for half-maximal inhibition (IC50) in series [1] (setting [4]) is 14.3 ± 2.26 µM; in series [2] (setting [4]), 18.8 ± 0.21 µM. The “SI for Dd2” value in series [1] is >6. In addition, the “SI for 3D7” value in series [2] is given as >4.

On to `CCOc1cncc2nnc(-c3ccc(Cl)cc3)n12` [Compound 8, 3-(4-chlorophenyl)-5-ethoxy-[1,2,4]triazolo[4,3-a]pyrazine], for which the IC50 was 2.91 ± 0.18 µM in series [1] (setting [4]) and 2.72 ± 0.03 µM in series [2] (setting [4]). Besides, the “SI for Dd2” value in series [1] is recorded as >27. Moreover, the “SI for 3D7” value in series [2] is recorded as >29.

As for `FC(F)(F)c1ncc(OCCc2ccccc2)n2c(-c3ccc(Cl)cc3)nnc12` [Compound 13, 3-(4-Chlorophenyl)-5-phenethoxy-8-(trifluoromethyl)-[1,2,4]triazolo[4,3-a]pyrazine], the IC50 in series [1] (setting [4]) is 10.2 ± 0.75 µM; in series [2] (setting [4]) it was 9.43 ± 0.44 µM. Besides, in series [1], the “SI for Dd2” value was >8. In series [2], the “SI for 3D7” value is reported as >9.

Regarding `N#Cc1ccc(-c2nnc3c(C(F)(F)F)ncc(OCCc4ccccc4)n23)cc1` [Compound 16, 4-(5-Phenethoxy-8-(trifluoromethyl)-[1,2,4]triazolo[4,3-a]pyrazin-3-yl)benzonitrile], the IC50 in series [1] (setting [4]) was 45.1 ± 6.58 µM; in series [2] (setting [4]), 22.5 ± 1.03 µM. In series [1], the “SI for Dd2” value is given as >2. For the same molecule, the “SI for 3D7” value in series [2] is given as >4.

With `FC(F)Oc1ccc(-c2nnc3c(C(F)(F)F)ncc(OCCc4ccccc4)n23)cc1` [Compound 10, 3-(4-(Difluoromethoxy)phenyl)-5-phenethoxy-8-(trifluoromethyl)-[1,2,4]triazolo[4,3-a]pyrazine], the IC50 is 17.1 ± 0.71 µM in series [1] (setting [4]) and 11.3 ± 1.45 µM in series [2] (setting [4]). The “SI for Dd2” value in series [1] is listed as >4. The “SI for 3D7” value in series [2] was >7.

On to `N#Cc1ccc(-c2nnc3cncc(OCCc4ccccc4)n23)cc1` [Compound 6, 4-(5-phenethoxy-[1,2,4]triazolo[4,3-a]pyrazin-3-yl)benzonitrile], for which the melting point fell in the range of 136 to 138 °C. Further, the half-maximal inhibitory concentration (IC50) in series [1] (setting [4]) is 1.17 ± 0.09 µM. Further, the “SI for Dd2” value in series [1] is listed as >68. Moreover, the IC50 in series [2] (setting [4]) was 1.15 ± 0.05 µM. The “SI for 3D7” value in series [2] is on record as >70.

In the case of `CCc1nc(N)nc(N)c1-c1ccc(Cl)cc1` [Pyrimethamine, reference compound], the inhibition (as a rule, how much of the control response was suppressed) at 80 µM in series [1] is < 33%. Further, the IC50 in series [2] (controls) came to 0.0152 ± 0.0012 µM. Also, in series [2], the “SI for 3D7” value was >657.

`Clc1ccc(-c2nnc3cncc(OCCc4ccccc4)n23)cc1` [Compound 5, 3-(4-chlorophenyl)-5-phenethoxy-[1,2,4]triazolo[4,3-a]pyrazine] yielded a melting point of 131 to 132 °C. Further, the concentration for half-maximal inhibition (IC50) in series [1] (setting [4]) was 0.22 ± 0.01 µM. Further, the “SI for Dd2” value in series [1] is >364. Further, the IC50 in series [2] (setting [4]) is 0.2 ± 0.02 µM. Also, the “SI for 3D7” value in series [2] is recorded as >396.

Source of the values: publication PMC9907012, “Synthesis and characterisation of new antimalarial fluorinated triazolopyrazine compounds” (Beilstein Journal of Organic Chemistry, 2023).
